As usually defined, the IC50 is the point on the concentration scale where inhibition reaches its midpoint. High values mean weaker potency in that assay, low ones greater potency in that assay.

In publication PMC5842406, “Antidyslipidemic potential of a novel farnesoid X receptor antagonist in a hamster model of dyslipidemia: Comparative studies of other nonstatin agents” (Pharmacology Research & Perspectives, 2018) one finds EC50 and IC50 data, which are given here for one compound.

In one assay the target is T1, PPARγ (Homo sapiens, UniProt P37231).
T1 construct: gene PPARG
T1 sequence (P37231 1-505): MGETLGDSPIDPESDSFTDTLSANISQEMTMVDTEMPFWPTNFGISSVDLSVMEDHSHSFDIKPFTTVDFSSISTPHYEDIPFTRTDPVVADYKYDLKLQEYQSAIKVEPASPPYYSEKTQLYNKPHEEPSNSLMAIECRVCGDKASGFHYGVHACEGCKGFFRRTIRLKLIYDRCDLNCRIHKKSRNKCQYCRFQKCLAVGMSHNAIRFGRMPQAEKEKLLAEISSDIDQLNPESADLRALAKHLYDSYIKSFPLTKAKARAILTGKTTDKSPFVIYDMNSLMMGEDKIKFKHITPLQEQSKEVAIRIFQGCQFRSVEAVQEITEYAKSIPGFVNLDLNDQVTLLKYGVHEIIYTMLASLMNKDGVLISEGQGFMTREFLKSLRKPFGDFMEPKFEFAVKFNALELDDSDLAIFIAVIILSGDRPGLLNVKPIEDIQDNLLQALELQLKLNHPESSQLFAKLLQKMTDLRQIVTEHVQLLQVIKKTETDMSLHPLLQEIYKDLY
Briefly: nuclear receptor panel assay, agonist mode. Type of assay: cell-based. The conditions noted are these: read-out: ED50 values. From the text:
nuclear receptor panel assay, agonist mode on PPARγ

The target in assay [1] is T2, FXR (Homo sapiens, UniProt Q96RI1).
T2 construct: gene NR1H4
T2 sequence (Q96RI1 1-486): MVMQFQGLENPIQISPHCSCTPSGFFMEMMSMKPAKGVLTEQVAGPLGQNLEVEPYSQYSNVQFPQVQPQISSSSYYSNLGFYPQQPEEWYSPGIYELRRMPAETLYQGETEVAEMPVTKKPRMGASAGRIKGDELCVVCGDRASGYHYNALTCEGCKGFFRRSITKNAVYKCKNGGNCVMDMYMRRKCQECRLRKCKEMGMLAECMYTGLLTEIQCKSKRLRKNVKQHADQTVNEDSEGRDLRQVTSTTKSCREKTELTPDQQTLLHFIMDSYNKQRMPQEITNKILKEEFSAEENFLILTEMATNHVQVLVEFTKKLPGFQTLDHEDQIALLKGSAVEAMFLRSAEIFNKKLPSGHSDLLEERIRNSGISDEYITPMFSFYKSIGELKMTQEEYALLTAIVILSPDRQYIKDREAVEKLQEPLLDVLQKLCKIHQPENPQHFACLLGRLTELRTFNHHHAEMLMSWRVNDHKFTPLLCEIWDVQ
Kind of assay: luciferase reporter gene assay, agonist mode. The assay is classed as cell-based. The conditions noted are these: read-out: ED50 values. The source says:
luciferase reporter gene assay, agonist mode on FXR

For assay [2], the target named is T2, FXR. Briefly: luciferase reporter gene assay, antagonist mode. The assay is classed as cell-based. The source says: luciferase reporter gene assay, antagonist mode on FXR
Background: In a reporter assay the amount or activity of a reporter protein is the signal.

Another assay deals with T3, RXRβ.
T3 construct: gene RXRB; not described
Kind of assay: nuclear receptor panel reporter assay, antagonist mode. As to conditions: control ligand not told for RXRβ. The assay is classed as cell-based, Homo sapiens. The source says:
nuclear receptor panel reporter assay, antagonist mode on RXRβ

Where only a bound is given, the exact number is not on record here.

Consider `CC(C)(C)n1ncc(C(=O)Nc2ccc(Cl)c(CN3CCC(Oc4ccc(C(=O)O)cc4)CC3)c2)c1-c1ccc(F)cc1` [compound‐T1, 4‐({1‐[5‐({[1‐tert‐butyl‐5‐(4‐fluorophenyl)‐1H‐pyrazol‐4‐yl]carbonyl}amino)‐2‐chlorobenzyl]piperidin‐4‐yl}oxy)benzoic acid], for which the EC50 on PPARγ and on FXR [1] was > 10 µM throughout. For the same compound, the figures for the IC50 against FXR [2] and in the assay with RXRβ were 0.0021 µM and > 10 µM, respectively.
